These results are taken from ChEMBL document CHEMBL3046056, “Design, synthesis, and biological activity of novel 4-(3,4-dimethoxyphenyl)-2-methylthiazole-5-carboxylic acid derivatives” (2004).

Structures are written as SMILES.

What all share (type): functional
Experiment [1] deals with Myzus persicae. Kind of experiment: Insecticidal activity against Myzus persicae (green peach aphid) at 600 g ai/ha.
For experiment [2], the system named is Empoasca fabae. Kind of experiment: Insecticidal activity against Empoasca fabae (potato leafhopper) at 600 g ai/ha.
Experiment [3] relates to Phytophthora infestans. The experiment in a line: Fungicidal activity against tomato late blight disease-causing Phytophthora infestans at 375 g ai/ha.
The test system of experiment [4] is Empoasca fabae. The experiment in a line: Insecticidal activity against Empoasca fabae (potato leafhopper) at 300 g ai/ha.
Experiment [5] deals with Myzus persicae. Kind of experiment: Insecticidal activity against Myzus persicae (green peach aphid) at 300 g ai/ha.
Experiment [6] deals with Phytophthora infestans. The experiment in a line: Fungicidal activity against tomato late blight disease-causing Phytophthora infestans at 300 g ai/ha.

As for `COC(=O)c1sc(C)nc1-c1ccc(OC)c(OC)c1`, the Activity turned out to be 0% in the experiment with Myzus persicae [1], 40% with Empoasca fabae [2] and 0% in the experiment on Phytophthora infestans [3].

On to `COc1ccc(-c2nc(C)sc2C(=O)O)cc1OC`, for which the Activity stood at 0% in the experiment with Myzus persicae [1], 20% in the experiment on Empoasca fabae [2] and 0% with Phytophthora infestans [3].

As to `COc1ccc(-c2nc(C)sc2C(=O)N2CCOCC2)cc1OC`, the Activity in the experiment on Myzus persicae [1] worked out at 20%; in the experiment with Empoasca fabae [2], 20%; in the experiment with Phytophthora infestans [3] it was 90%.

With `CCN(C)C(=O)c1sc(C)nc1-c1ccc(OC)c(OC)c1`, the Activity in the experiment with Myzus persicae [1] is 40%; in the experiment on Empoasca fabae [2], 40%; with Phytophthora infestans [3], 0%.

As to `COc1ccc(-c2nc(C)sc2C(=O)N(C)OC)cc1OC`, the Activity in the experiment on Myzus persicae [1] turned out to be 20%; in the experiment with Empoasca fabae [2] it was 20%; with Phytophthora infestans [3], 50%.

For the compound `COc1ccc(-c2nc(C)sc2C(=O)NCC#N)cc1OC`, the Activity in the experiment on Myzus persicae [1], in the experiment on Empoasca fabae [2] and in the experiment with Phytophthora infestans [3] was 0% in each case.

In the case of `CCN(CC)C(=O)c1sc(C)nc1-c1ccc(OC)c(OC)c1`, the results for the Activity in the experiment on Myzus persicae [1], in the experiment on Empoasca fabae [2] and in the experiment with Phytophthora infestans [3] were 0%, 40% and 0%, respectively.

As to `COc1ccc(-c2nc(C)sc2C(=O)NCCCn2ccnc2)cc1OC`, the Activity is 0% in the experiment on Myzus persicae [1], 0% with Empoasca fabae [2] and 75% with Phytophthora infestans [3].

On to `C#CC(C)(C)NC(=O)c1sc(C)nc1-c1ccc(OC)c(OC)c1`, for which the Activity in the experiment with Myzus persicae [1] stood at 60%; in the experiment with Empoasca fabae [2], 40%; in the experiment on Phytophthora infestans [3], 0%.

In the case of `C#CC(C)(CC)NC(=O)c1sc(C)nc1-c1ccc(OC)c(OC)c1` (stereo not drawn), the Activity was 20% in the experiment with Myzus persicae [1], 0% in the experiment with Empoasca fabae [2] and 90% in the experiment on Phytophthora infestans [3].

Take `COc1ccc(-c2nc(C)sc2C(=O)Nc2ccccc2)cc1OC`: the Activity in the experiment on Myzus persicae [1] stood at 20%; with Empoasca fabae [2] it was 40%; in the experiment with Phytophthora infestans [3], 0%.

Consider `COc1ccc(-c2nc(C)sc2C(N)=O)cc1OC`, for which the Activity is on record as 0% in the experiment with Myzus persicae [1], 20% with Empoasca fabae [2] and 0% in the experiment on Phytophthora infestans [3].

For the compound `C#CCOC(=O)c1sc(C)nc1-c1ccc(OC)c(OC)c1`, the Activity in the experiment on Myzus persicae [1] is recorded as 20%; in the experiment with Empoasca fabae [2] it was 20%; in the experiment on Phytophthora infestans [3], 0%.

For the compound `COc1ccc(-c2nc(C)sc2C(=O)OCC(C)C)cc1OC`, the Activity with Myzus persicae [1] came out at 20%; in the experiment on Empoasca fabae [2], 20%; with Phytophthora infestans [3] it was 75%.

Consider `COc1ccc(C(=CC(=O)N2CCOCC2)c2ccc(Cl)cc2)cc1OC` [DIMETHOMORPH], for which the Activity turned out to be 0% in the experiment with Empoasca fabae [4], 0% in the experiment with Myzus persicae [5] and 100% in the experiment on Phytophthora infestans [6].

Turning to `COc1ccc(/C(=C\C(=O)N2CCOCC2)c2ccc(F)cc2)cc1OC` [FLUMORPH], the Activity in the experiment on Empoasca fabae [4] is 0%; in the experiment on Myzus persicae [5], 0%; in the experiment with Phytophthora infestans [6] it was 100%.
